The values below come from article PMC3867360, “Membrane Interactions of S100A12 (Calgranulin C)” (PLoS ONE, 2013).

The assay concerns the target T1, porcine S100A12 (Calgranulin C) (Sus scrofa, UniProt P80310).
T1 construct: pET28a-S100A12 in E. coli BL21(DE3); N-terminal or other His-tag cut with thrombin; non-covalent antiparallel homodimer; apo form in SPR
T1 sequence (P80310 1-92 limits assumed): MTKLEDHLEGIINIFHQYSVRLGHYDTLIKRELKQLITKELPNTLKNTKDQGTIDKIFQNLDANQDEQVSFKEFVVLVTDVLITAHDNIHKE
The experiment in a line: SPR, Biacore X, L1 sensorchip, immobilized LUVs. The assay is classed as binding. The text has this: SPR, Biacore X, L1 sensorchip, immobilized LUVs on porcine S100A12 (Calgranulin C)
In general terms: Surface plasmon resonance follows binding to a sensor surface in real time, without labels.

As a reminder, the Kd is the free concentration of one partner at which half of the binding sites on the other are occupied at equilibrium, for simple one-to-one binding. On to `CCCCCCCCCCCCCCCC(=O)OC[C@H](COP(=O)([O-])OCC[N+](C)(C)C)OC(=O)CCCCCCCCCCCCCCC` [DPPC, 1,2-dipalmitoyl-sn-glycero-3-phosphocholine], for which the Kd was 5.9 µM.
Under `CCCCCCCCCCCCCCCC(=O)OC[C@H](COP(=O)(O)OCC(O)CO)OC(=O)CCCCCCCCCCCCCCC` (some centres unmarked) [DPPG, 1,2-dipalmitoyl-sn-glycero-3-phosphoglycerol] stands 0.63 µM.
